Data as given in US20080009418A1, “Selective Inhibitors” (Alchemia LTD., priority 2004, published 2008).

Tests used:
Human δ-opioid (DOP) = target: T1, Human δ-opioid (DOP) (Homo sapiens, UniProt P41143); test: Radioligand binding, human δ-opioid (DOP) membranes, FlashPlate, [3H]-Bremazocine; conditions: compound at 10 μM, [3H]-Bremazocine
T1 construct: purchased Perkin Elmer Biosignal
How it was run: (§1)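 Cloned human receptor membranes were coated onto FlashPlate wells and incubated with radioligand and compound (added from a 0.5 mM DMSO daughter plate) for 1 hour at room temperature in the dark. Scintillation counting gave percent inhibition, with DMSO defining total and reference ligand defining non-specific binding.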

Human κ-Opioid (KOP) = target: T2, Human κ-Opioid (KOP) (Homo sapiens, UniProt P41145); test: Radioligand binding, human κ-opioid (KOP) membranes, filtration, [3H]-Diprenorphine; conditions: compound at 10 μM, [3H]-Diprenorphine
T2 construct: purchased Perkin Elmer Biosignal
T2 sequence (P41145 whole entry): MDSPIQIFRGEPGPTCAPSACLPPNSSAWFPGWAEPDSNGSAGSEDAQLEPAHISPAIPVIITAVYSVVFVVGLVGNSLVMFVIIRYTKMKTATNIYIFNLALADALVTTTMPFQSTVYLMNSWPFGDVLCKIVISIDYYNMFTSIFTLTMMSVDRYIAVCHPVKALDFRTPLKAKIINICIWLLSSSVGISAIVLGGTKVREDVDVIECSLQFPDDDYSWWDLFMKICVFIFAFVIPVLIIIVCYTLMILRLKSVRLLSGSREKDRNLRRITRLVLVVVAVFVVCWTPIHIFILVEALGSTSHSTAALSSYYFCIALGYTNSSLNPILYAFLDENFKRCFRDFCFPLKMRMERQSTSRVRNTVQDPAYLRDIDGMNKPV
How it was run: (§2)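 Filtration binding on cloned human receptor membranes (1 Unit/well), [125I]-Substance P for NK1 and [3H]-Diprenorphine for KOP, 1 h at room temperature. Filters PEI-presoaked, washed with cold 50 mM Tris-HCl pH 7.4, counted by scintillation; percent inhibition calculated, reference ligand defining non-specific binding.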

Human Melanocortin (MC3) = target: T3, Human Melanocortin (MC3) (Homo sapiens, UniProt P41968); test: Radioligand binding, human melanocortin MC3 membranes, FlashPlate, [125I]-NDP-αMSH; conditions: compound at 10 μM, [125I]-NDP-αMSH
T3 construct: purchased Perkin Elmer Biosignal
T3 sequence (P41968 whole entry): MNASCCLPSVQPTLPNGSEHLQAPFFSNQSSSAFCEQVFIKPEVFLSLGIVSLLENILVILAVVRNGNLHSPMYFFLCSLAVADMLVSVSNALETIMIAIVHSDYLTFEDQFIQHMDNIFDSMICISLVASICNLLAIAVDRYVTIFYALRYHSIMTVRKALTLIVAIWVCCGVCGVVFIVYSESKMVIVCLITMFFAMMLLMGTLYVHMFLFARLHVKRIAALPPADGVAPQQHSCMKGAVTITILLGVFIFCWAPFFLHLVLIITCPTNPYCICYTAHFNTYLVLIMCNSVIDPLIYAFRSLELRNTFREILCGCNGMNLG
How it was run: as §1

Human Melanocortin (MC4) = target: T4, Human Melanocortin (MC4) (Homo sapiens, UniProt P32245); test: Radioligand binding, human melanocortin MC4 membranes, FlashPlate, [125I]-NDP-αMSH; conditions: compound at 10 μM, [125I]-NDP-αMSH
T4 construct: purchased Perkin Elmer Biosignal
T4 sequence (P32245 whole entry): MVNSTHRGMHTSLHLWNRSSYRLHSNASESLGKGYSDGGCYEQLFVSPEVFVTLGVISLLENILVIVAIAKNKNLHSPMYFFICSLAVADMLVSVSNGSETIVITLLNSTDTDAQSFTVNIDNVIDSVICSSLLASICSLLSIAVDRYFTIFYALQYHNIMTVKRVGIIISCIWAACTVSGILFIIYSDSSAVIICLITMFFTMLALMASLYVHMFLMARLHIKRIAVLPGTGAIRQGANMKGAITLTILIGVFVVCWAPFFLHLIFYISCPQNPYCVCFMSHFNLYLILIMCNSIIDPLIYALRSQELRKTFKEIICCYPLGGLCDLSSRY
How it was run: as §1

Human melanocortin (MC5) = target: T5, Human melanocortin (MC5) (Homo sapiens, UniProt P33032); test: Radioligand binding, human melanocortin MC5 membranes, FlashPlate, [125I]-NDP-αMSH; conditions: compound at 10 μM, [125I]-NDP-αMSH
T5 construct: purchased Perkin Elmer Biosignal
T5 sequence (P33032 whole entry): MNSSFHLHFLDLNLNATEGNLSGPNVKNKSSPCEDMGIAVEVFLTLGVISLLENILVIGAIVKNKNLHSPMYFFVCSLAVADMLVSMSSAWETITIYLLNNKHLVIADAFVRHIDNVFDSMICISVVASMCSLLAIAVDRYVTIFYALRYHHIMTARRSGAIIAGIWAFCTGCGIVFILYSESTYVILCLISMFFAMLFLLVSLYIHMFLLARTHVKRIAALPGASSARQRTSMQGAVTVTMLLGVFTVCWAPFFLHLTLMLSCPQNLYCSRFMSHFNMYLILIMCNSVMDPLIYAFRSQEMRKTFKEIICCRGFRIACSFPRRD
How it was run: as §1

[1] = target: T6, Human melanin-concentrating hormone (MCH1) (Homo sapiens, UniProt Q99705); test: Radioligand binding, human melanin-concentrating hormone MCH1 membranes, FlashPlate, [125I]-S36057; conditions: compound at 10 μM
T6 construct: purchased Perkin Elmer Biosignal
T6 sequence (Q99705 whole entry): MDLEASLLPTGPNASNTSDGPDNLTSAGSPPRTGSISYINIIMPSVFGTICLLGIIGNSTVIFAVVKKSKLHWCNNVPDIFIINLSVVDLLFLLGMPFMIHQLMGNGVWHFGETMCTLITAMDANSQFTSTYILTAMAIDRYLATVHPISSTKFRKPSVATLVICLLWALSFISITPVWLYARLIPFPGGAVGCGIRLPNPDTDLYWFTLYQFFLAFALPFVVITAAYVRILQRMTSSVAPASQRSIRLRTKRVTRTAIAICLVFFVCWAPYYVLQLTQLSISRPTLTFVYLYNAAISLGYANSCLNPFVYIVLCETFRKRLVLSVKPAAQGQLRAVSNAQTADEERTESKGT
How it was run: as §1

Human μ-opioid (MOP) = target: T7, Human μ-opioid (MOP) (Homo sapiens, UniProt P35372); test: Radioligand binding, human μ-opioid (MOP) membranes, FlashPlate, [3H]-Naloxone; conditions: compound at 10 μM, [3H]-Naloxone
T7 construct: purchased Perkin Elmer Biosignal
T7 sequence (P35372 whole entry): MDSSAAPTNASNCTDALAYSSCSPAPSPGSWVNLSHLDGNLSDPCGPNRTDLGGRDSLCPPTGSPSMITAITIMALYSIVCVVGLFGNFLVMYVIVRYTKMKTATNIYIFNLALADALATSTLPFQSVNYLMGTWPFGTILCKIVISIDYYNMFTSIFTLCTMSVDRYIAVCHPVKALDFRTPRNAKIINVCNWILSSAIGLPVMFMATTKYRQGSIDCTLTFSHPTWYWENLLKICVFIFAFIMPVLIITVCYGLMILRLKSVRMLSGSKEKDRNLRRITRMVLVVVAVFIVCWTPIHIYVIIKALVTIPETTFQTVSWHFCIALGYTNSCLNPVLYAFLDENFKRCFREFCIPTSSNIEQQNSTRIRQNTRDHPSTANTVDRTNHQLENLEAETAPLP
How it was run: as §1

Human neurokinin (NK1) = target: T8, Human neurokinin (NK1) (Homo sapiens, UniProt P25103); test: Radioligand binding, human neurokinin NK1 membranes, filtration, [125I]-Substance P; conditions: compound at 10 μM, [125I]-Substance P
T8 construct: purchased Perkin Elmer Biosignal
T8 sequence (P25103 whole entry): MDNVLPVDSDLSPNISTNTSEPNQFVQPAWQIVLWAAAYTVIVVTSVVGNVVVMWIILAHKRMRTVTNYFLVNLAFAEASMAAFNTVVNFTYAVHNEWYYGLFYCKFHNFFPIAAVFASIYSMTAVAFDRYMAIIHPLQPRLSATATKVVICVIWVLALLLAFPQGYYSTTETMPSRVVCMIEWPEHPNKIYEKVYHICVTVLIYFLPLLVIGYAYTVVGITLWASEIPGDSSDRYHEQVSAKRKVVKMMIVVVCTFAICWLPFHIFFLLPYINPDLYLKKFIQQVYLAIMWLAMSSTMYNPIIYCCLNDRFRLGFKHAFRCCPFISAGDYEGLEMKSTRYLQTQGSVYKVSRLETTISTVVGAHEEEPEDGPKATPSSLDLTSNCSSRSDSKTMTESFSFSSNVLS
How it was run: as §2

[2] = target: T9, Human neuropeptide Y (NPY-Y1) (Homo sapiens, UniProt P25929); test: Radioligand binding, human neuropeptide Y NPY-Y1 membranes, FlashPlate, [125I]-PYY; conditions: compound at 10 μM, [125I]-PYY
T9 construct: purchased Perkin Elmer Biosignal
T9 sequence (P25929 1-384): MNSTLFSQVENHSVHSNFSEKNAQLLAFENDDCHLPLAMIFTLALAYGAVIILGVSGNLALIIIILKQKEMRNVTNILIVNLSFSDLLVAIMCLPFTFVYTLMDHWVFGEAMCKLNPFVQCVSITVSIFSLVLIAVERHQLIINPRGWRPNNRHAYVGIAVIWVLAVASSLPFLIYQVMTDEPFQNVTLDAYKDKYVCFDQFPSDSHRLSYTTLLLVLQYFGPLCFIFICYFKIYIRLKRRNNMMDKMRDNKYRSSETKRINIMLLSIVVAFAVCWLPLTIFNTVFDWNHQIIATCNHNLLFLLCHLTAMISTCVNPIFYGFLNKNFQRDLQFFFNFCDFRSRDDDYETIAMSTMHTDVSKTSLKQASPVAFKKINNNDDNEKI
How it was run: as §1

Human opioid (ORL1) = target: T10, Human opioid (ORL1) (Homo sapiens, UniProt P41146); test: Radioligand binding, human opioid ORL1 membranes, FlashPlate, [125I]-Nociceptin; conditions: compound at 10 μM, [125I]-Nociceptin
T10 construct: purchased Perkin Elmer Biosignal
T10 sequence (P41146 whole entry): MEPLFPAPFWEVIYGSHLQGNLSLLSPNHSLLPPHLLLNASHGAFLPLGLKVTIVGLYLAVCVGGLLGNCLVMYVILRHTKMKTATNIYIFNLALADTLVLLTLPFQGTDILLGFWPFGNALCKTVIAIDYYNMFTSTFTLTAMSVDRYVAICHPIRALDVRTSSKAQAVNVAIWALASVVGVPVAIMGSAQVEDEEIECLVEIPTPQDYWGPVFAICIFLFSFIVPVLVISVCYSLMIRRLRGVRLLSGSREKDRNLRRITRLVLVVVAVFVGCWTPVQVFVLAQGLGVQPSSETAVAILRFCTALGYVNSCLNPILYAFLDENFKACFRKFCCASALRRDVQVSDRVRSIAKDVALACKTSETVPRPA
How it was run: as §1

Mouse urotensin (mUR2) = target: T11, Mouse urotensin (mUR2) (Mus musculus, UniProt Q8VIH9); test: Radioligand binding, mouse urotensin mUR2 membranes, FlashPlate, [125I]-Urotensin II; conditions: compound at 10 μM, [125I]-Urotensin II
T11 construct: purchased Perkin Elmer Biosignal
T11 sequence (Q8VIH9 1-385): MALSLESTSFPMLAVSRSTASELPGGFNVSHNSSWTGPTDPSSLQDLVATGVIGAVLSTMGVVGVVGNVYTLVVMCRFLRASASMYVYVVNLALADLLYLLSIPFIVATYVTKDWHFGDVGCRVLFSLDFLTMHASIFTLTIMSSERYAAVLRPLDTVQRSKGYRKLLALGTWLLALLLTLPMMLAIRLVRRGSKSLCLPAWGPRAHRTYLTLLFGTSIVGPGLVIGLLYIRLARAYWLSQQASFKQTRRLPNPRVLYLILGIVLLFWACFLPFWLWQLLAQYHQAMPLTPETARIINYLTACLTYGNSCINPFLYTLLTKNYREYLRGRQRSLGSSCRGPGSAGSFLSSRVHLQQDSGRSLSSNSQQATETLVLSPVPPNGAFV
How it was run: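 Cloned mouse urotensin (mUR2) receptor membranes from Perkin Elmer Biosignal were immobilized in FlashPlate microplates using a proprietary coating. Each well got 19.5 μl buffer, then 0.5 μl of DMSO, reference ligand, or compound. Adding 5 μl of [125I]-Urotensin II, diluted to 5× final concentration in binding buffer, started binding. Plates were sealed with TopSeal-A and incubated 1 hour at room temperature in the dark. Wells were counted for 30 seconds each on a TopCount after a 60-second delay, and percentage inhibition was calculated.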

T1 sequence (P41143 whole entry): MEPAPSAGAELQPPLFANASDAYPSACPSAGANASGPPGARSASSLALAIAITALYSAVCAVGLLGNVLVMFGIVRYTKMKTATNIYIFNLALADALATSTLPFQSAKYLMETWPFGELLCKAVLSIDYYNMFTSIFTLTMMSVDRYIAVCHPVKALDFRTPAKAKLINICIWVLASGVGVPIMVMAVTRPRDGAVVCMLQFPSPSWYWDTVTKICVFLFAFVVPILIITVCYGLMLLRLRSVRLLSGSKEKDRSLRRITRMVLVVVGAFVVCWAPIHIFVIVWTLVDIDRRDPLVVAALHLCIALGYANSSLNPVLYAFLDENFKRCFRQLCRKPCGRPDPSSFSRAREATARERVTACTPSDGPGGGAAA

## NCCC(=O)N[C@H]1C(OCc2ccc3ccccc3c2)O[C@H](COCc2ccc3ccccc3c2)[C@@H](O)[C@@H]1OCc1ccccc1 (stereo partly shown) [compound 449]
Human δ-opioid (DOP); human DOP membranes
  A1: inhibition of radioligand binding: − (“−” indicates less than 50% inhibition at 10 μM)
Human κ-Opioid (KOP); human KOP membranes
  A2: inhibition of radioligand binding: − (“−” indicates less than 50% inhibition at 10 μM)
Human Melanocortin (MC3); human MC3 membranes, 10 µM
  A3: inhibition of radioligand binding: + (“+” indicates greater than 50% inhibition at 10 μM)
Human Melanocortin (MC4); human MC4 membranes
  A4: inhibition of radioligand binding: + (“+” indicates greater than 50% inhibition at 10 μM)
Human melanocortin (MC5); human MC5 membranes
  A5: inhibition of radioligand binding: + (“+” indicates greater than 50% inhibition at 10 μM)
[1]; [125I]-S36057, human MCH1 membranes, 10 µM
  A6: inhibition of radioligand binding: + (“+” indicates greater than 50% inhibition at 10 μM)
Human μ-opioid (MOP); human MOP membranes
  A7: inhibition of radioligand binding: − (“−” indicates less than 50% inhibition at 10 μM)
Human neurokinin (NK1); human NK1 membranes
  A8: inhibition of radioligand binding: + (“+” indicates greater than 50% inhibition at 10 μM)
[2]; human NPY-Y1 membranes
  A9: inhibition of radioligand binding: − (“−” indicates less than 50% inhibition at 10 μM)
Human opioid (ORL1); human ORL1 membranes, 10 µM
  A10: inhibition of radioligand binding: + (“+” indicates greater than 50% inhibition at 10 μM)
Mouse urotensin (mUR2); mouse mUR2 membranes
  A11: inhibition of radioligand binding: − (“−” indicates less than 50% inhibition at 10 μM)

## N=C(N)NCCCC(=O)NC1COC(COCc2ccc(Cl)cc2)C(O)C1OCc1ccc(Cl)cc1 (stereo not shown) [compound 542]
Human δ-opioid (DOP)
  A1: inhibition of radioligand binding, human δ-opioid (DOP): − (“−” indicates less than 50% inhibition at 10 μM)
Human κ-Opioid (KOP)
  A2: inhibition of radioligand binding, human κ-opioid (KOP): − (“−” indicates less than 50% inhibition at 10 μM)
Human Melanocortin (MC3)
  A3: inhibition of radioligand binding, human melanocortin (MC3): − (“−” indicates less than 50% inhibition at 10 μM)
Human Melanocortin (MC4)
  A4: inhibition of radioligand binding, human melanocortin (MC4): − (“−” indicates less than 50% inhibition at 10 μM)
Human melanocortin (MC5)
  A5: inhibition of radioligand binding, human melanocortin (MC5): − (“−” indicates less than 50% inhibition at 10 μM)
[1]; [125I]-S36057
  A6: inhibition of radioligand binding, human melanin-concentrating hormone (MCH1): − (“−” indicates less than 50% inhibition at 10 μM)
Human μ-opioid (MOP)
  A7: inhibition of radioligand binding, human μ-opioid (MOP): − (“−” indicates less than 50% inhibition at 10 μM)
Human neurokinin (NK1)
  A8: inhibition of radioligand binding, human neurokinin (NK1): + (“+” indicates greater than 50% inhibition at 10 μM)
[2]
  A9: inhibition of radioligand binding, human neuropeptide Y (NPY-Y1): − (“−” indicates less than 50% inhibition at 10 μM)
Human opioid (ORL1)
  A10: inhibition of radioligand binding, human opioid (ORL1): − (“−” indicates less than 50% inhibition at 10 μM)
Mouse urotensin (mUR2)
  A11: inhibition of radioligand binding, mouse urotensin (mUR2): − (“−” indicates less than 50% inhibition at 10 μM)

## CSC1OC(COCc2ccc(Cl)cc2)C(O)C(OCc2ccc3ccccc3c2)C1NC(=O)CCCNC(=N)N (stereo not shown) [compound 311]
Human δ-opioid (DOP)
  A1: inhibition of radioligand binding, human δ-opioid (DOP): − (“−” indicates less than 50% inhibition at 10 μM)
Human κ-Opioid (KOP)
  A2: inhibition of radioligand binding, human κ-opioid (KOP): − (“−” indicates less than 50% inhibition at 10 μM)
Human Melanocortin (MC3)
  A3: inhibition of radioligand binding, human melanocortin (MC3): − (“−” indicates less than 50% inhibition at 10 μM)
Human Melanocortin (MC4)
  A4: inhibition of radioligand binding, human melanocortin (MC4): + (“+” indicates greater than 50% inhibition at 10 μM)
Human melanocortin (MC5)
  A5: inhibition of radioligand binding, human melanocortin (MC5): + (“+” indicates greater than 50% inhibition at 10 μM)
[1]; [125I]-S36057
  A6: inhibition of radioligand binding, human melanin-concentrating hormone (MCH1): − (“−” indicates less than 50% inhibition at 10 μM)
Human μ-opioid (MOP)
  A7: inhibition of radioligand binding, human μ-opioid (MOP): − (“−” indicates less than 50% inhibition at 10 μM)
Human neurokinin (NK1)
  A8: inhibition of radioligand binding, human neurokinin (NK1): + (“+” indicates greater than 50% inhibition at 10 μM)
[2]
  A9: inhibition of radioligand binding, human neuropeptide Y (NPY-Y1): − (“−” indicates less than 50% inhibition at 10 μM)
Human opioid (ORL1)
  A10: inhibition of radioligand binding, human opioid (ORL1): − (“−” indicates less than 50% inhibition at 10 μM)
Mouse urotensin (mUR2)
  A11: inhibition of radioligand binding, mouse urotensin (mUR2): − (“−” indicates less than 50% inhibition at 10 μM)

## COCC1OC(OCc2ccc(Cl)cc2)C(NC(=O)CCCN)C(OCc2ccccc2)C1O (stereo not shown) [compound 197]
Human δ-opioid (DOP); FlashPlate
  A1: inhibition of radioligand binding: − (“−” indicates less than 50% inhibition at 10 μM)
Human κ-Opioid (KOP); filtration
  A2: inhibition of radioligand binding: − (“−” indicates less than 50% inhibition at 10 μM)
Human Melanocortin (MC3); FlashPlate
  A3: inhibition of radioligand binding: − (“−” indicates less than 50% inhibition at 10 μM)
Human Melanocortin (MC4); FlashPlate
  A4: inhibition of radioligand binding: − (“−” indicates less than 50% inhibition at 10 μM)
Human melanocortin (MC5); FlashPlate
  A5: inhibition of radioligand binding: − (“−” indicates less than 50% inhibition at 10 μM)
[1]; [125I]-S36057, FlashPlate
  A6: inhibition of radioligand binding: − (“−” indicates less than 50% inhibition at 10 μM)
Human μ-opioid (MOP); FlashPlate
  A7: inhibition of radioligand binding: − (“−” indicates less than 50% inhibition at 10 μM)
Human neurokinin (NK1); filtration
  A8: inhibition of radioligand binding: + (“+” indicates greater than 50% inhibition at 10 μM)
[2]; FlashPlate
  A9: inhibition of radioligand binding: − (“−” indicates less than 50% inhibition at 10 μM)
Human opioid (ORL1); FlashPlate
  A10: inhibition of radioligand binding: − (“−” indicates less than 50% inhibition at 10 μM)
Mouse urotensin (mUR2); FlashPlate
  A11: inhibition of radioligand binding: − (“−” indicates less than 50% inhibition at 10 μM)

## CO[C@H]1[C@H](O)[C@@H](COCc2cccc(O)c2)OC(OCCc2ccccc2)[C@@H]1NC(=O)CNC(=N)N (stereo partly shown) [compound 158]
Human δ-opioid (DOP)
  A1 radioligand binding, percentage inhibition: − (“−” indicates less than 50% inhibition at 10 μM)
Human κ-Opioid (KOP)
  A2 radioligand binding, percentage inhibition: − (“−” indicates less than 50% inhibition at 10 μM)
Human Melanocortin (MC3)
  A3 radioligand binding, percentage inhibition: − (“−” indicates less than 50% inhibition at 10 μM)
Human Melanocortin (MC4)
  A4 radioligand binding, percentage inhibition: − (“−” indicates less than 50% inhibition at 10 μM)
Human melanocortin (MC5)
  A5 radioligand binding, percentage inhibition: − (“−” indicates less than 50% inhibition at 10 μM)
[1]; [125I]-S36057
  A6 radioligand binding, percentage inhibition: − (“−” indicates less than 50% inhibition at 10 μM)
Human μ-opioid (MOP)
  A7 radioligand binding, percentage inhibition: − (“−” indicates less than 50% inhibition at 10 μM)
Human neurokinin (NK1)
  A8 radioligand binding, percentage inhibition: + (“+” indicates greater than 50% inhibition at 10 μM)
[2]
  A9 radioligand binding, percentage inhibition: − (“−” indicates less than 50% inhibition at 10 μM)
Human opioid (ORL1)
  A10 radioligand binding, percentage inhibition: − (“−” indicates less than 50% inhibition at 10 μM)
Mouse urotensin (mUR2)
  A11 radioligand binding, percentage inhibition: − (“−” indicates less than 50% inhibition at 10 μM)
